Literature values in patent US9682037B2, “Non-mucoadhesive film dosage forms” (APR APPLIED PHARMA RESEARCH S.A., priority 2006, dated 2017).
Where a name gives a salt, the structure may show the parent alone. Read-outs that look alike come from different tables or passages of the source.

How the values were obtained:
[1] = oral
[2] = oral 5 mg once daily for 10 days, normal healthy volunteers

In the case of Cc1nccn1CC1CCc2c(c3ccccc3n2C)C1=O (racemic) [Ondansetron Base, (±) 1,2,3,9 tetrahydro-9-methyl-3-[(2-methyl-1H-imidazol-1-yl)methyl]-4H-carbazol-4-one], the Bioavailability (8 mg tablet) is listed as “(56% for 8 mg tablet)”, the “Bioavailability in Healthy Subjects” value (healthy subjects) is listed as “Bioavailability in Healthy Subjects = ca. 45-75%” and the Tmax (in vivo) is listed as “Tmax = 1.5-2.5 Hours hours”. The “Effect of food on absorption” value (result in words) was “Bioavailability slightly enhanced by food” and the “Linearity / dose proportionality of pharmacokinetics” value (from here on “Linearity / dose proportionality”) (result in words) was “Plasma concentrations are not dose”.

In the case of Cc1nnc2n1-c1ccc(Cl)cc1C(c1ccccc1)=NC2 [Alprazolam], the Tmax (in vivo) is given as “Tmax = 1-2 hours”, the Cmax (over 0.3-3.0 mg dose range) is given as “Cmax = 8.0-37 ng/ml over 0.3-3.0 mg dose range” and the “Linearity / dose proportionality” value (result in words) is given as “Plasma levels proportionate to dose given”.

For O=C1CN=C(c2ccccc2Cl)c2cc([N+](=O)[O-])ccc2N1 [Clonazepam], the “Absolute Bioavailability” value (in vivo) is given as “Absolute bioavailability = ca. 90%” and the Tmax (in vivo) is given as “Tmax = 1-4 hours”.

For Clc1ccc2c(c1)CCc1cccnc1C2=C1CCNCC1 [Desloratadine, 8-chloro, 6,11-dihydro-11-(4-piperdinylidene)-5H-benzo[5,6]cyclohepta[1,2-b]pyridine], the AUC [2] is given as “AUC = 56.9 ng hr/ml*” and the Tmax [2] is given as “Tmax = 3.0 hours*”.

In the case of COc1ccc2c3c1O[C@H]1C[C@@H](O)C=C[C@@]31CCN(C)C2 [Galantamine HBr], the Tmax (fasted) is listed as “Tmax = ca. 60 minutes (fasted)”, the “Absolute Bioavailability” value (in vivo) is listed as “Absolute bioavailability −= ca. 90%” and the “Administration with food delays absorption (Tmax) by” value (with food) is listed as 1.5 h.

For O=C1Nc2ccc(Cl)cc2C(c2ccccc2Cl)=NC1O (centres unmarked) [Lorazepam], the Cmax (2 mg) is given as 20 ng/mL, the “Absolute Bioavailability” value (in vivo) is given as “Absolute bioavailability = ca. 90%” and the Tmax (in vivo) is given as “Tmax = ca. 120 minutes”. The “Linearity / dose proportionality” value (result in words) was “dose proportionate”.

In the case of Cc1cc2c(s1)Nc1ccccc1N=C2N1CCN(C)CC1 [Olanzapine, 2-methyl-4-(4-methyl-1-piperazinyl)-10H-thieno[2,3-b][1,5]benzodiazepine], the “steady state conc. relative to conc. after single doses” value (administration once daily) is listed as “ca. twice the conc. after single doses”, the “Absolute Bioavailability” value (in vivo) is listed as “Absolute Bioavailability = ca. 60%” and the Tmax (in vivo) is listed as “Tmax = 6.0 hours”. The “Linearity / dose proportionality” value (result in words) was “Linear pharmacokinetics over clinical dosing”.

For Cc1nc2n(c(=O)c1CCN1CCC(c3noc4cc(F)ccc34)CC1)CCCC2 [Risperidone], the “Absolute Bioavailability” value (in vivo) is given as “Absolute Bioavailability = ca. 70% (CV = 25%)” and the Tmax (in vivo) is given as “Tmax = 1.0 hour hours”.

For CCN(C)C(=O)Oc1cccc([C@H](C)N(C)C)c1 [Rivastigmine Tartrate], the “Absolute Bioavailability” value (3.0 mg dose) is given as “Absolute Bioavailability = ca. 36% for 3.0 mg”, the “increase in AUC on doubling dose” value (doubling dose from 3 to 6 mg BID) is given as “Doubling dose from 3 to 6 mg BID → three fold” and the Tmax (fasted) is given as “Tmax = 1.0 hours (fasted state)”. For the same molecule, the “Linearity / dose proportionality” value (result in words) was “Linear pharmokinetics up to 3 mg BID”, the “Administration with food delays absorption (Tmax) by” value (with food) was 1.5 h and the “Food decreases/lowers Cmax by” value (with food) was about 30%.

In the case of CCCc1nn(C)c2c(=O)[nH]c(-c3cc(S(=O)(=O)N4CCN(C)CC4)ccc3OCC)nc12 [Sildenafil Citrate], the Tmax (fasted) is listed as 0.5 to 2 h, the Cmax (fasted, 100 mg dose) is listed as “Cmax = ca. 450 ng/ml.(fasted) (100 mg dose)” and the “Absolute Bioavailability” value (in vivo) is listed as “Absolute bioavailability = ca. 40%”.

In the case of CNS(=O)(=O)Cc1ccc2[nH]cc(CCN(C)C)c2c1 [Sumatriptan Succinate, 3-[2-(dimethylamino)ethyl]-N-methyl-indole-5-methanesulfonamide], the Cmax (25 mg) is listed as 18 ng/mL, the Cmax range (25 mg) is listed as 7 to 47 ng/mL and the Cmax (100 mg) is listed as 51 ng/mL. The Cmax range (100 mg) was “(range 28-100 ng/ml) (100 mg)”, the “High fat meal: AUC increased by” value (100 mg tablets) was 12% and the “High fat meal: Cmax increased by” value (100 mg tablets) was 15%. For the same molecule, the Tmax (during migraine attack) was about 2.5 h, the “Absolute Bioavailability” value (in vivo) was “Absolute bioavailability = ca. 15%” and the “Cmax during a migraine attack versus when migraine free” value (in vivo) was “Cmax is same during a migraine attack and when”. The “Linearity / dose proportionality” value (result in words) was “Single dose → dose proportionality in extent of” and the Tmax (when migraine free) was about 2.0 h.

In the case of CCCc1nc(C)c2c(=O)[nH]c(-c3cc(S(=O)(=O)N4CCN(CC)CC4)ccc3OCC)nn12 [Vardenafil HCl], the Tmax (fasted) is listed as 0.5 to 2 h, the Tmax median (fasted) is listed as 1 h and the Cmax (fasted, 20 mg dose) is listed as 10 to 25 ng/mL. For the same molecule, the Cmax median (fasted, 20 mg dose) was about 18 ng/mL, the “Administration with high fat meal lowers Cmax by” value (high fat meal) was “Cmax by ca. 18-50%” and the “Absolute Bioavailability” value (in vivo) was “Absolute bioavailability = ca. 15%”.

For CNC[C@H](O)c1cccc(O)c1 [phenylephrine], the “absolute bioavailability when ingested orally” value [1] is given as “approximately 40%” and the “time to peak plasma concentrations” value [1] is given as 1 to 2 h.
